{"source": "patent US9283269B2", "about": "“Method for reducing the allergenicity of animal dander” (IMMUNOPATH PROFILE, INC., priority 1998, dated 2016)", "key": {"[1]": {"settings": "ionizing side chain of the amino acid residue; cited from earlier work"}, "[2]": {"settings": "cited from earlier work; for absorption after oral administration: gastrointestinal tract"}, "[3]": {"test_system": "dermatitis and fungal infection of the toe nail", "settings": "50% acetic acid, brief periods of application", "method": "Ammoniated butyric acid is […]. […] The acetic acid represents the deaminated glycine in this subject composition can be applied one to seven days per week and can be applied multiple times in one day. The duration of application can range from 2 to 60 minutes (or any other chosen interval) per application."}, "breast cancer cells": {"test_system": "breast cancer cells", "experiment": "Breast cancer cell suspension in vitro treated with polysorbate 80", "assay_type": "cell-based", "from_the_text": "Parkinson's disease also has an abnormal protein alpha synuculein intracytoplasmic aggregate/inclusion. Lewy bodies instead of normal random coil repeat proteins structures, cancer with deficiency in HLB modulation and adequate surfactant required by DNA progress through normal rheologic flow required in mitosis with normal cellular and nuclear division and sharing of DNA genetic traits and the resultant formation of normal daughter cells. The darkly stained nuclear mitotic figures makes its appearance as an aggregate plaque or precipitate removed from the normal flow of nuclear function and the microcirculation of nuclear DNA genetic nuclear focus and originating cell division. Response to hydrophilic surfactant in vitro is supportive of this thesis (83 percent of the breast cancer cells were killed in 24 to 48 hours with exposure to 0.25 percent polysorbate 80, Tween 80). Again countering the poor solubility of the plaque-like mechanism disease which contributes to metabolization and the normal metabolic turnover of all cell tissue and organs brings about a disease-free therapeutic response. About one-third of these cancers are associated with inflammatory immunologic response T lymphocytic-plasma cell changes and are of poor prognosis. Response to HLB modulation towards a hydrophilic HLB has provided an 83 percent in-vitro encouraging response reported in other embodiment.\nSuccessful anticancer therapeutic activity cancer tissue cell in vitro′ breast cancer cell suspension comparative trials with treatment with 0.25 percent to 0.5 percent polysorbate 80 (Mean 80) with 83 percent reduction in 24 to 48 hours of cancer cell mitochondrial activity after HLB modulation with tween 80, and 50 percent reduction in cancer cells' abnormal morphology and abnormal mitosis on cytopathologic review."}, "[4]": {"test_system": "pediatric liver transplant recipients", "settings": "of 64 pediatric liver transplant recipients; cited from earlier work"}, "[5]": {"settings": "uric acid crystals; cited from earlier work"}}, "data": [{"smiles": "N=C(N)NCCC[C@H](N)C(=O)O", "note": "[Arg, arginine]", "values": [{"measurement": "ΔH", "setting": "[1]", "value": "11.6 to 13", "unit": "kcal/mol"}]}, {"smiles": "N[C@@H](CC(=O)O)C(=O)O", "note": "[Asp, aspartic acid]", "values": [{"measurement": "pK of side chain", "setting": "[1]", "value": "4.2-4.5"}]}, {"smiles": "N[C@@H](CS)C(=O)O", "note": "[Cys, cysteine]", "values": [{"measurement": "pK of side chain", "setting": "[1]", "value": "7.5-8.5"}]}, {"smiles": "N[C@@H](CCC(=O)O)C(=O)O", "note": "[Glu, glutamic acid]", "values": [{"measurement": "pK of side chain", "setting": "[1]", "value": "4.3-4.6"}]}, {"smiles": "N[C@@H](Cc1c[nH]cn1)C(=O)O", "note": "[His, histidine]", "values": [{"measurement": "pK of side chain", "setting": "[1]", "value": "6.2-6.5"}, {"measurement": "ΔH", "setting": "[1]", "value": "6.93 to 7.53", "unit": "kcal/mol"}]}, {"smiles": "COc1ccc2c(c1)c(CC(=O)O)c(C)n2C(=O)c1ccc(Cl)cc1", "note": "[Indomethacin]", "values": [{"measurement": "steady-state concentrations in plasma", "setting": "[2]; after long-term administration", "value": "approximately 0.5 micrograms/ml"}, {"measurement": "time to peak concentration in plasma", "setting": "[2]; fasting subject, oral", "value": "≤ 2", "unit": "h"}, {"measurement": "absorption after oral administration", "setting": "[2]", "value": "rapidly and almost completely absorbed"}, {"measurement": "bound to plasma proteins", "setting": "[2]; in vivo", "value": 90, "unit": "%"}, {"measurement": "converted by O-demethylation", "setting": "[2]; inactive metabolites", "value": "about 50%"}, {"measurement": "converted by conjugation with glucuronic acid", "setting": "[2]; inactive metabolites", "value": "about 10%"}, {"measurement": "concentrations in plasma required for an anti-inflammatory effect", "setting": "[2]; not definitely determined", "value": "less than 1 microgram per ml"}]}, {"smiles": "NCCCC[C@H](N)C(=O)O", "note": "[Lys, lysine]", "values": [{"measurement": "pK of side chain", "setting": "[1]", "value": "9.8-10.4"}, {"measurement": "ΔH", "setting": "[1]", "value": "10 to 11.6", "unit": "kcal/mol"}]}, {"smiles": "O=C(O)c1cc(/N=N/c2ccc(S(=O)(=O)Nc3ccccn3)cc2)ccc1O", "note": "[Sulfasalazine, salicylazosulfapyridine]", "values": [{"measurement": "absorption after oral administration", "setting": "[2]", "value": "poorly absorbed"}]}, {"smiles": "CC(=O)O", "note": "[acetic acid]", "values": [{"measurement": "effect on dermatitis and fungal toe nail infection", "setting": "[3]", "value": "dramatically reverse long-term dermatitis and, fungal infection of the toe nail"}]}, {"smiles": "CCCCCCCC/C=C\\CCCCCCCC(=O)OCCOCC(OCCO)C1OCC(OCCO)C1OCCO", "note": "(stereo not drawn) [polysorbate 80]", "values": [{"measurement": "breast cancer cells killed", "setting": "breast cancer cells; 0.25 percent polysorbate 80, 24 to 48 hours", "value": 83, "unit": "%"}, {"measurement": "reduction in cancer cells' abnormal morphology and abnormal mitosis on cytopathologic review", "setting": "breast cancer cells; 0.25 percent to 0.5 percent polysorbate 80", "value": 50, "unit": "%"}, {"measurement": "reduction of cancer cell mitochondrial activity", "setting": "breast cancer cells; 0.25 percent to 0.5 percent polysorbate 80, 24 to 48 hours", "value": 83, "unit": "%"}]}, {"smiles": "C=CC[C@@H]1/C=C(\\C)C[C@H](C)C[C@H](OC)[C@H]2O[C@@](O)(C(=O)C(=O)N3CCCC[C@H]3C(=O)O[C@H](/C(C)=C/[C@@H]3CC[C@@H](O)[C@H](OC)C3)[C@H](C)[C@@H](O)CC1=O)[C@H](C)C[C@@H]2OC", "note": "[tacrolimus]", "values": [{"measurement": "patients who experienced food allergies", "setting": "[4]", "value": 17, "unit": "%"}, {"measurement": "patients who experienced food allergies (number)", "setting": "[4]", "value": 11}]}, {"smiles": "O=c1[nH]c(=O)c2[nH]c(=O)[nH]c2[nH]1", "note": "[uric acid]", "values": [{"measurement": "solubility in glycerine", "setting": "[5]", "value": "very soluble"}, {"measurement": "solubility in water", "setting": "[5]", "value": "marked insolubility"}]}]}
